From US5215982A, “Cephem compounds” (Fujisawa Pharmaceutical Co., Ltd., priority 1989, dated 1993)

Tested on: E. coli 31
Experiment: In vitro antibacterial activity, two-fold agar-plate dilution method (MIC)
Assay type: cell-based
Conditions: Escherichia coli, 10^6 viable cells per ml, heart infusion agar, 37° C., 20 hours, read-out: MIC (minimal inhibitory concentration)
Procedure: Now in order to show the utility of the object compound (I), the test data on MIC (minimal inhibitory concentration) of a representative compound of the compound (I) are shown in the following.
In vitro antibacterial activity was determined by the two-fold agar-plate dilution method as described below.
One loopful of an overnight culture of each test strain in Trypticase-soy broth (10^6 viable cells per ml) was streaked on heart infusion agar (HI-agar) containing graded concentrations of representative test compound, and the minimal inhibitory concentration (MIC) was expressed in terms of μg/ml after incubation at 37° C. for 20 hours.

MIC: ≤ 0.025 µg/mL
Structure (SMILES): CON=C(C(=O)NC1C(=O)N2C(C(=O)[O-])=C(C[n+]3ccc4[nH]ccn43)CSC12)c1nsc(N)n1 (stereo not drawn) [Test Compound (1), 7β-[2-(5-Amino-1,2,4-thiadiazol-3-yl)-2-methoxyiminoacetamido]-3-[5-(1H-imidazo[1,2-b]pyrazolio)]methyl-3-cephem-4-carboxylate (syn isomer)]
